# Results taken from the supplement of paper PMC10307832.
# Experiments:
# Assay in all cases: relative viability (nuclei count vs DMSO), 5 days (fraction); higher = more cells survive
# NCI-H2228 = tested on: NCI-H2228
# Summary of the method: (§1)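 Cells from lung cancer lines were seeded into 1536-well plates and, one day later, dosed by pin tool. Treatments were either a single drug or a fixed dose of an anchor drug with five library-drug doses (not always all listed) in √10 steps. After 5 days, nuclei were stained in a one-step fixation (final 0.05% Triton X-100, 1% formaldehyde, 1 ug/ml Hoechst) and counted on 4× images, and relative viability is the treated-to-vehicle nuclei ratio, as the median of duplicate plates.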
# EMC-BAC-2 = tested on: EMC-BAC-2
# Summary of the method: as §1
# NCI-H1944 = tested on: NCI-H1944
# Summary of the method: as §1
# A-427 = tested on: A-427
# Summary of the method: as §1
# NCI-H2170 = tested on: NCI-H2170
# Summary of the method: as §1
# NCI-H2009 = tested on: NCI-H2009
# Summary of the method: as §1
# PC-3 [JPC-3] = tested on: PC-3 [JPC-3]
# Summary of the method: as §1
# NCI-H596 = tested on: NCI-H596
# Summary of the method: as §1
# HOP-62 = tested on: HOP-62
# Summary of the method: as §1
# NCI-H1792 = tested on: NCI-H1792
# Summary of the method: as §1
# LK-2 = tested on: LK-2
# Summary of the method: as §1
# HARA = tested on: HARA
# Summary of the method: as §1
# LXF-289 = tested on: LXF-289
# Summary of the method: as §1
# NCI-H322M = tested on: NCI-H322M
# Summary of the method: as §1
# NCI-H3122 = tested on: NCI-H3122
# Summary of the method: as §1
# ABC-1 = tested on: ABC-1
# Summary of the method: as §1
# SK-MES-1 = tested on: SK-MES-1
# Summary of the method: as §1
# NCI-H727 = tested on: NCI-H727
# Summary of the method: as §1
# NCI-H1993 = tested on: NCI-H1993
# Summary of the method: as §1
# SW 1573 = tested on: SW 1573
# Summary of the method: as §1
structure (smiles),measurement,setting,value
O=c1cc(-c2cccc3c2Sc2ccccc2S3)oc(N2CCOCC2)c1 + C[C@@H](Oc1cc(-c2cnn(C3CCNCC3)c2)cnc1N)c1c(Cl)ccc(F)c1Cl [Crizotinib] (partner 1 µM),relative viability,NCI-H2228; first compound 0.08 µM,0.407
same,relative viability,NCI-H2228; first compound 0.253 µM,0.506
same,relative viability,NCI-H2228; first compound 0.8 µM,0.399
same,relative viability,NCI-H2228; first compound 2.53 µM,0.394
same,relative viability,NCI-H2228; first compound 8 µM,0.354
same,relative viability,EMC-BAC-2; first compound 0.08 µM,0.856
same,relative viability,EMC-BAC-2; first compound 0.253 µM,0.753
same,relative viability,EMC-BAC-2; first compound 0.8 µM,0.841
same,relative viability,EMC-BAC-2; first compound 2.53 µM,0.784
same,relative viability,EMC-BAC-2; first compound 8 µM,0.817
same,relative viability,NCI-H1944; first compound 0.08 µM,1.12
same,relative viability,NCI-H1944; first compound 0.253 µM,1.23
same,relative viability,NCI-H1944; first compound 0.8 µM,1.17
same,relative viability,NCI-H1944; first compound 8 µM,1.08
same,relative viability,A-427; first compound 0.08 µM,0.988
same,relative viability,A-427; first compound 0.253 µM,0.661
same,relative viability,A-427; first compound 0.8 µM,1.02
same,relative viability,A-427; first compound 2.53 µM,0.86
same,relative viability,A-427; first compound 8 µM,0.791
same,relative viability,NCI-H2170; first compound 0.08 µM,1.17
same,relative viability,NCI-H2170; first compound 0.253 µM,1.19
same,relative viability,NCI-H2170; first compound 0.8 µM,1.31
same,relative viability,NCI-H2170; first compound 2.53 µM,1.12
same,relative viability,NCI-H2170; first compound 8 µM,1.26
same,relative viability,NCI-H2009; first compound 0.08 µM,1.02
same,relative viability,NCI-H2009; first compound 0.253 µM,1.02
same,relative viability,NCI-H2009; first compound 0.8 µM,1.05
same,relative viability,NCI-H2009; first compound 2.53 µM,0.957
same,relative viability,NCI-H2009; first compound 8 µM,1.03
same,relative viability,PC-3 [JPC-3]; first compound 0.08 µM,0.983
same,relative viability,PC-3 [JPC-3]; first compound 0.253 µM,1.01
same,relative viability,PC-3 [JPC-3]; first compound 0.8 µM,1.03
same,relative viability,PC-3 [JPC-3]; first compound 2.53 µM,0.971
same,relative viability,PC-3 [JPC-3]; first compound 8 µM,1.02
same,relative viability,NCI-H596; first compound 0.08 µM,0.96
same,relative viability,NCI-H596; first compound 0.253 µM,1.08
same,relative viability,NCI-H596; first compound 0.8 µM,0.982
same,relative viability,NCI-H596; first compound 2.53 µM,0.891
same,relative viability,NCI-H596; first compound 8 µM,0.806
same,relative viability,HOP-62; first compound 0.08 µM,0.842
same,relative viability,HOP-62; first compound 0.253 µM,0.998
same,relative viability,HOP-62; first compound 0.8 µM,0.989
same,relative viability,HOP-62; first compound 2.53 µM,0.653
same,relative viability,HOP-62; first compound 8 µM,0.904
same,relative viability,NCI-H1792; first compound 0.253 µM,1.64
same,relative viability,NCI-H1792; first compound 0.8 µM,0.987
same,relative viability,NCI-H1792; first compound 2.53 µM,0.896
same,relative viability,NCI-H1792; first compound 8 µM,1.19
same,relative viability,LK-2; first compound 0.08 µM,0.196
same,relative viability,LK-2; first compound 0.253 µM,0.224
same,relative viability,LK-2; first compound 0.8 µM,0.194
same,relative viability,LK-2; first compound 2.53 µM,0.231
same,relative viability,LK-2; first compound 8 µM,0.208
same,relative viability,HARA; first compound 0.08 µM,0.971
same,relative viability,HARA; first compound 0.253 µM,1.12
same,relative viability,HARA; first compound 0.8 µM,1
same,relative viability,HARA; first compound 2.53 µM,1.05
same,relative viability,HARA; first compound 8 µM,1.28
same,relative viability,LXF-289; first compound 0.08 µM,0.839
same,relative viability,LXF-289; first compound 0.253 µM,0.877
same,relative viability,LXF-289; first compound 0.8 µM,0.849
same,relative viability,LXF-289; first compound 2.53 µM,0.8
same,relative viability,LXF-289; first compound 8 µM,0.845
same,relative viability,NCI-H322M; first compound 0.08 µM,0.885
same,relative viability,NCI-H322M; first compound 0.253 µM,0.901
same,relative viability,NCI-H322M; first compound 0.8 µM,1.04
same,relative viability,NCI-H322M; first compound 2.53 µM,0.937
same,relative viability,NCI-H322M; first compound 8 µM,1.08
same,relative viability,NCI-H3122; first compound 0.08 µM,0.324
same,relative viability,NCI-H3122; first compound 0.253 µM,0.266
same,relative viability,NCI-H3122; first compound 0.8 µM,0.24
same,relative viability,NCI-H3122; first compound 2.53 µM,0.3
same,relative viability,NCI-H3122; first compound 8 µM,0.323
same,relative viability,ABC-1; first compound 0.08 µM,1.27
same,relative viability,ABC-1; first compound 0.253 µM,1.24
same,relative viability,ABC-1; first compound 0.8 µM,1.05
same,relative viability,ABC-1; first compound 2.53 µM,1.31
same,relative viability,ABC-1; first compound 8 µM,1.49
same,relative viability,SK-MES-1; first compound 0.08 µM,1.03
same,relative viability,SK-MES-1; first compound 0.253 µM,0.949
same,relative viability,SK-MES-1; first compound 0.8 µM,0.937
same,relative viability,SK-MES-1; first compound 2.53 µM,0.925
same,relative viability,SK-MES-1; first compound 8 µM,1.02
same,relative viability,NCI-H727; first compound 0.253 µM,0.892
same,relative viability,NCI-H727; first compound 2.53 µM,0.724
same,relative viability,NCI-H727; first compound 8 µM,0.868
same,relative viability,NCI-H1993; first compound 0.08 µM,0.838
same,relative viability,NCI-H1993; first compound 0.253 µM,1.01
same,relative viability,NCI-H1993; first compound 0.8 µM,0.89
same,relative viability,NCI-H1993; first compound 2.53 µM,0.871
same,relative viability,NCI-H1993; first compound 8 µM,0.99
same,relative viability,SW 1573; first compound 0.08 µM,0.76
same,relative viability,SW 1573; first compound 0.253 µM,0.852
same,relative viability,SW 1573; first compound 0.8 µM,0.886
same,relative viability,SW 1573; first compound 2.53 µM,0.794
same,relative viability,SW 1573; first compound 8 µM,0.849
